# Measured values published in patent US8338565B2, “Macrocyclic compounds for inhibition of tumor necrosis factor alpha” (Ensemble Therapeutics Corporation, priority 2008, dated 2012).
# Where two headings read alike, the source gives them in different places. Numbered stars: 1 amine (or outer) side, 2 acyl side, 3 side chain; on linkers, the order of the positions; unused ones are H or OH. Bridge positions count the residues as written; N and C are the ends. Square brackets hold non-standard residues; d marks the D form. Peptide text beside a SMILES is read from it. Phe(4-CF3) = N[C@@H](Cc1ccc(C(F)(F)F)cc1)C(=O)O; Phe(2,4-Cl2) = N[C@@H](Cc1ccc(Cl)cc1Cl)C(=O)O; Bip = N[C@@H](Cc1ccc(-c2ccccc2)cc1)C(=O)O; dBip = N[C@H](Cc1ccc(-c2ccccc2)cc1)C(=O)O; dPhe(4-NH2) = Nc1ccc(C[C@@H](N)C(=O)O)cc1; Phe(4-Br) = N[C@@H](Cc1ccc(Br)cc1)C(=O)O; Phe(4-NH2) = Nc1ccc(C[C@H](N)C(=O)O)cc1; d(hPhe) = N[C@H](CCc1ccccc1)C(=O)O; d2Thi = N[C@H](Cc1cccs1)C(=O)O; Suc = O=C(CCC(=O)[*:2])[*:1]
# Legend:
# [1] = test system: TNF-α (degradation of IkB in HeLa cells or A431 cells); assay: Human cell-based assay: inhibition of TNF-α induced degradation of IkB; settings: for inhibition at 25 µM: 25 μM compound, read-out: Inhibition at Various Compound Concentrations, 25 μM; for inhibition at 10 µM: read-out: Inhibition at Various Compound Concentrations, 10 μM; for inhibition at 5 µM: read-out: Inhibition at Various Compound Concentrations, 5 μM
# [2] = target: T1, TNFα / TNFα receptor (TNFα R1/Fc) (Homo sapiens, UniProt P01375); assay: Inhibition of binding of TNFα to the TNFα receptor (plate ELISA competition); settings: Table 2
# T1 construct: purchased R&D Systems
# T1 sequence (P01375 77-233 limits assumed, species assumed): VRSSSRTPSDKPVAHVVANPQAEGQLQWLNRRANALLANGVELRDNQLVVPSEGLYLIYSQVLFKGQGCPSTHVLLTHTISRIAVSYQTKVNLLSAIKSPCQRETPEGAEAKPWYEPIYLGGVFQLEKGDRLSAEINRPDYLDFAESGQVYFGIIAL
# Method in brief: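 Plates were coated with TNFα at 15 nM. Test compound and 8.33 nM receptor-Fc (PBST, 2% DMSO) were first mixed in solution for 30 min at room temperature, then transferred to the plates for another 30 min. Competition was read by absorbance at 450 nm after HRP anti-human IgG Fc detection with TMB.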
# [3] = read-out: Activity (IC50, inhibition of TNFα binding to TNFα R1/Fc)
# [4] = 10 μM compound, HeLa or A431 cells
# [5] = 5 μM compound, HeLa or A431 cells
"IC50 [2, 3]",SMILES,inhibition at 25 µM ([1]; HeLa or A431 cells),"inhibition at 10 µM [1, 4]","inhibition at 5 µM [1, 5]",inhibition at 5 µM [1],inhibition at 10 µM [1],"IC50 ([2]; Activity (IC50, inhibition of TNFα binding to TNFα R1/Fc))"
< 10 µM,NCCCC(=O)N[C@H]1CC(=O)N[C@H](Cc2cccs2)C(=O)N[C@@H](Cc2ccc(-c3ccccc3)cc2)C(=O)N[C@H](Cc2ccccc2)C(=O)N[C@H](C(=O)O)Cc2ccc(cc2)NC1=O [Compound 381],,< 10%,< 10%,,,
< 10 µM,C[C@@H](NC(=O)[C@@H]1Cc2ccc(cc2)OCC(=O)N[C@@H](Cc2cccs2)C(=O)N[C@H](Cc2ccc(-c3ccccc3)cc2)C(=O)N[C@@H](Cc2ccccc2)C(=O)N1)C(=O)O [Compound 384],,< 10%,< 10%,,,
< 10 µM,O=C(O)CCCNC(=O)[C@@H]1Cc2ccc(cc2)OCC(=O)N[C@H](Cc2cccs2)C(=O)N[C@@H](Cc2ccc(-c3ccccc3)cc2)C(=O)N[C@H](CCc2ccccc2)C(=O)N1 [Compound 298],,< 10%,< 10%,,,

# The next lines start with the molecule.
SMILES,"IC50 [2, 3]",inhibition at 25 µM ([1]; HeLa or A431 cells),"inhibition at 10 µM [1, 4]","inhibition at 5 µM [1, 5]",inhibition at 5 µM [1],inhibition at 10 µM [1],"IC50 ([2]; Activity (IC50, inhibition of TNFα binding to TNFα R1/Fc))"
O=C1CCC(=O)N[C@H](Cc2cccs2)C(=O)N[C@@H](Cc2ccc(Br)cc2)C(=O)N[C@H](Cc2ccccc2)C(=O)N[C@H](C(=O)O)Cc2ccc(cc2)N1 [Compound 85] ([d2Thi][Phe(4-Br)][dF][Phe(4-NH2)]-OH; linker N-4 via Suc),10 to 30 µM,< 10%,,,,,
"O=C1CCC(=O)N[C@H](CCc2ccccc2)C(=O)N[C@@H](Cc2ccc(Cl)cc2Cl)C(=O)N[C@H](Cc2ccccc2)C(=O)N[C@@H](C(=O)O)Cc2ccc(cc2)N1 [Compound 112] ([d(hPhe)][Phe(2,4-Cl2)][dF][dPhe(4-NH2)]-OH; linker N-4 via Suc)",< 10 µM,,< 10%,,,,
O=C1CCC(=O)N[C@H](CCc2ccccc2)C(=O)N[C@@H](Cc2ccc(C(F)(F)F)cc2)C(=O)N[C@H](Cc2ccccc2)C(=O)N[C@@H](C(=O)N[C@@H](Cc2ccccc2)C(=O)O)Cc2ccc(cc2)N1 [Compound 12] ([d(hPhe)][Phe(4-CF3)][dF][dPhe(4-NH2)]F-OH; linker N-4 via Suc),< 10 µM,,10 to 50%,10 to 50%,,,
COC(=O)[C@H](CC(=O)O)NC(=O)[C@@H]1Cc2ccc(cc2)NC(=O)CCC(=O)N[C@H](Cc2cccs2)C(=O)N[C@@H](Cc2ccc(-c3ccccc3)cc2)C(=O)N[C@H](Cc2ccccc2)C(=O)N1 [Compound 29] ([d2Thi][Bip][dF][Phe(4-NH2)]D-OMe; linker N-4 via Suc),< 10 µM,< 10%,,,,,
O=C1CCC(=O)N[C@H](Cc2cccs2)C(=O)N[C@H](Cc2ccc(-c3ccccc3)cc2)C(=O)N[C@H](Cc2ccccc2)C(=O)N[C@H](C(=O)O)Cc2ccc(cc2)N1 [Compound 194] ([d2Thi][dBip][dF][Phe(4-NH2)]-OH; linker N-4 via Suc),> 100 µM,< 10%,,,,,
O=C(O)CN(Cc1ccccc1)C(=O)[C@@H]1Cc2ccc(cc2)OCC(=O)N[C@H](Cc2cccs2)C(=O)N[C@@H](Cc2ccc(-c3ccccc3)cc2)C(=O)N[C@H](CCc2ccccc2)C(=O)N1 [Compound 323],,,,,10 to 50%,10 to 50%,< 10 µM
O=C1N[C@H](CCc2ccccc2)C(=O)N[C@@H](C(=O)O)Cc2ccc(cc2)NC(=O)[C@H](O)[C@@H](O)C(=O)N[C@H](Cc2ccccc2)C(=O)N[C@H]1Cc1ccc(Br)cc1 [Compound 237],< 10 µM,,< 10%,< 10%,,,
